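Step 1: Grow cells in 96-well plates. Step 2: Expose to compound for 48 hours at 5 concentrations. Step 3: Interpolate endpoints linearly; if unreached, use highest concentration. GI50 is the concentration that inhibits growth by half.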 The source made the active and inactive calls. No stated cut-off is given here; in the data, active = GI50 up to about 1.1 µM and inactive = higher.
Tests used:
Experiment in all cases: NCI anticancer screen, dose series, 48 h
786-0 = system: 786-0
A549 = system: A549
ACHN = system: ACHN
CAKI-1 = system: CAKI-1
CCRF-CEM = system: CCRF-CEM
DLD-1 = system: DLD-1
DMS-114 = system: DMS-114
EKVX = system: EKVX
HCC 2998 = system: HCC 2998
HCT-116 = system: HCT-116
HCT-15 = system: HCT-15
HL-60 = system: HL-60
HOP-18 = system: HOP-18
HOP-62 = system: HOP-62
HOP-92 = system: HOP-92
HT-29 = system: HT-29
IGROV-1 = system: IGROV-1
K562 = system: K562
KM12 = system: KM12
LOX IMVI = system: LOX IMVI
LXFL 529 = system: LXFL 529
M14 = system: M14
M19-MEL = system: M19-MEL
MOLT-4 = system: MOLT-4
Malme-3M = system: Malme-3M
NCI-H226 = system: NCI-H226
NCI-H23 = system: NCI-H23
NCI-H460 = system: NCI-H460
NCI-H522 = system: NCI-H522
OVCAR-3 = system: OVCAR-3
OVCAR-4 = system: OVCAR-4
OVCAR-5 = system: OVCAR-5
OVCAR-8 = system: OVCAR-8
RPMI-8226 = system: RPMI-8226
RXF 393 = system: RXF 393
RXF 631 = system: RXF 631
SF-268 = system: SF-268
SF-295 = system: SF-295
SF-539 = system: SF-539
SK-MEL-28 = system: SK-MEL-28
SK-MEL-2 = system: SK-MEL-2
SK-MEL-5 = system: SK-MEL-5
SK-OV-3 = system: SK-OV-3
SN12C = system: SN12C
SNB-19 = system: SNB-19
SNB-78 = system: SNB-78
SR = system: SR
SW-620 = system: SW-620
TK-10 = system: TK-10
U-251 = system: U-251
UACC-257 = system: UACC-257
UACC-62 = system: UACC-62
UO-31 = system: UO-31
XF498 = system: XF498
A498 = system: A498
COLO 205 = system: COLO 205
DMS-273 = system: DMS-273
KM-20L2 = system: KM-20L2
SNB-75 = system: SNB-75

CC(=O)/C(=C\C1=CCCO1)C(=O)Nc1ccccc1C
GI50 (786-0): > 100 µM (inactive) | GI50 (A549): > 100 µM (inactive) | GI50 (ACHN): > 100 µM (inactive) | GI50 (CAKI-1): > 100 µM (inactive) | GI50 (CCRF-CEM): > 100 µM (inactive) | GI50 (DLD-1): > 100 µM (inactive) | GI50 (DMS-114): > 100 µM (inactive) | GI50 (EKVX): > 100 µM (inactive) | GI50 (HCC 2998): > 100 µM (inactive) | GI50 (HCT-116): > 100 µM (inactive) | GI50 (HCT-15): > 100000 nM | GI50 (HL-60): > 100 µM (inactive) | GI50 (HOP-18): > 100 µM (inactive) | GI50 (HOP-62): > 100 µM (inactive) | GI50 (HOP-92): > 100 µM (inactive) | GI50 (HT-29): > 100 µM (inactive) | GI50 (IGROV-1): > 100 µM (inactive) | GI50 (K562): > 100 µM (inactive) | GI50 (KM12): > 100 µM (inactive) | GI50 (LOX IMVI): > 100 µM (inactive) | GI50 (LXFL 529): > 100 µM (inactive) | GI50 (M14): > 100 µM (inactive) | GI50 (M19-MEL): > 100 µM (inactive) | GI50 (MOLT-4): > 100 µM (inactive) | GI50 (Malme-3M): > 100 µM (inactive) | GI50 (NCI-H226): > 100 µM (inactive) | GI50 (NCI-H23): > 100 µM (inactive) | GI50 (NCI-H460): > 100 µM (inactive) | GI50 (NCI-H522): > 100 µM (inactive) | GI50 (OVCAR-3): > 100 µM (inactive) | GI50 (OVCAR-4): > 100 µM (inactive) | GI50 (OVCAR-5): > 100 µM (inactive) | GI50 (OVCAR-8): > 100 µM (inactive) | GI50 (RPMI-8226): > 100 µM (inactive) | GI50 (RXF 393): > 100 µM (inactive) | GI50 (RXF 631): > 100 µM (inactive) | GI50 (SF-268): > 100 µM (inactive) | GI50 (SF-295): > 100 µM (inactive) | GI50 (SF-539): > 100 µM (inactive) | GI50 (SK-MEL-28): > 10 µM (inactive) | GI50 (SK-MEL-2): > 100 µM (inactive) | GI50 (SK-MEL-5): > 100 µM (inactive) | GI50 (SK-OV-3): > 100 µM (inactive) | GI50 (SN12C): > 100 µM (inactive) | GI50 (SNB-19): > 100 µM (inactive) | GI50 (SNB-78): > 100 µM (inactive) | GI50 (SR): > 100 µM (inactive) | GI50 (SW-620): > 100 µM (inactive) | GI50 (TK-10): > 100 µM (inactive) | GI50 (U-251): > 100 µM (inactive) | GI50 (UACC-257): > 100 µM (inactive) | GI50 (UACC-62): > 100 µM (inactive) | GI50 (UO-31): > 100 µM (inactive) | GI50 (XF498): > 100 µM (inactive)

CC(=O)OC1C(=O)C(O)C(C)OC1O[C@@H]1C[C@@]2(C)[C@@H]3CC=C4[C@@H](C[C@H](O)C(=O)C4(C)C)[C@]3(C)C(=O)C[C@]2(C)[C@H]1[C@@](C)(O)C(=O)/C=C/C(C)(C)O (some centres not stated)
GI50 (786-0): 1.53 µM (inactive) | GI50 (A498): 577 nM (active) | GI50 (A549): 2.64 µM (inactive) | GI50 (ACHN): 2.74 µM (inactive) | GI50 (CAKI-1): 1.36 µM (inactive) | GI50 (CCRF-CEM): 0.662 µM (active) | GI50 (COLO 205): 885 nM (active) | GI50 (DLD-1): 1.3 µM (inactive) | GI50 (DMS-273): 658 nM (active) | GI50 (EKVX): 3.86 µM (inactive) | GI50 (HCC 2998): 2.27 µM (inactive) | GI50 (HCT-116): 2.2 µM (inactive) | GI50 (HCT-15): 1080 nM | GI50 (HL-60): 1.91 µM (inactive) | GI50 (HOP-18): 1.22 µM (inactive) | GI50 (HOP-62): 2.96 µM (inactive) | GI50 (HOP-92): 1.28 µM (inactive) | GI50 (HT-29): 1.35 µM (inactive) | GI50 (IGROV-1): 2.6 µM (inactive) | GI50 (K562): 3.35 µM (inactive) | GI50 (KM-20L2): 1.39 µM (inactive) | GI50 (KM12): > 7.53 µM (inactive) | GI50 (LOX IMVI): 0.706 µM (active) | GI50 (LXFL 529): 0.881 µM (active) | GI50 (M14): 0.918 µM (active) | GI50 (M19-MEL): 2.44 µM (inactive) | GI50 (MOLT-4): 3.51 µM (inactive) | GI50 (Malme-3M): 1.04 µM (active) | GI50 (NCI-H226): 0.693 µM (active) | GI50 (NCI-H23): 6 µM (inactive) | GI50 (NCI-H460): 1.98 µM (inactive) | GI50 (NCI-H522): 0.975 µM (active) | GI50 (OVCAR-3): 1.7 µM (inactive) | GI50 (OVCAR-4): 1.02 µM (active) | GI50 (OVCAR-5): 7.29 µM (inactive) | GI50 (OVCAR-8): 6.28 µM (inactive) | GI50 (RPMI-8226): 0.44 µM (active) | GI50 (RXF 393): 0.845 µM (active) | GI50 (RXF 631): 2.39 µM (inactive) | GI50 (SF-268): 0.843 µM (active) | GI50 (SF-295): 3.03 µM (inactive) | GI50 (SF-539): 0.675 µM (active) | GI50 (SK-MEL-28): 0.447 µM (active) | GI50 (SK-MEL-2): 0.748 µM (active) | GI50 (SK-MEL-5): 1.47 µM (inactive) | GI50 (SK-OV-3): 3.06 µM (inactive) | GI50 (SN12C): 2.61 µM (inactive) | GI50 (SNB-19): 1.62 µM (inactive) | GI50 (SNB-75): 710 nM (active) | GI50 (SNB-78): 0.916 µM (active) | GI50 (SR): 1.52 µM (inactive) | GI50 (SW-620): 1.12 µM (inactive) | GI50 (TK-10): 1.85 µM (inactive) | GI50 (U-251): 1.16 µM (inactive) | GI50 (UACC-257): 0.91 µM (active) | GI50 (UACC-62): 3.15 µM (inactive) | GI50 (UO-31): 3.18 µM (inactive) | GI50 (XF498): 0.297 µM (active)

From ChEMBL document CHEMBL1201862, “PubChem BioAssay data set” (2004)
